Reference: patent US5461057A, “Hydro-ethano-indeno-pyridines” (priority 1994, dated 1995)

What was measured:
[1] = test system: acetic acid-induced writhing; test: Acetic Acid Writhing Test in Mice; type: in vivo, mouse; conditions: Mus musculus, po, read-out: WRITH ED50
Text: The blockade of writhing induced by the intraperitoneal injection of acetic acid is an established experimental animal model for the screening of antinociceptive drugs (drugs which prevent the appreciation or transmission of pain sensations).
The procedure for the Acetic Acid Writhing Test in Mice is set forth in Hendershot et al, J. Pharmacol. Exp. Therap. 125:237, (1959); Koster et al., Fed. Proc. 18:412, (1959); and international application PCT/US91/06705, filed 20 Sep. 1991, which are hereby incorporated by reference.
The results for this test are given below in the units of mg/kg which is also abbreviated in this specification as mpk. The results for this test are given as effective doses (ED50 's).

[2] = test system: pulmonary resistance; test: Pulmonary Resistance in the Anesthetized Rat; type: in vivo; conditions: 0.5 mpk, i.v., mean of 5 animals, % decrease in pre-drug baseline resistance; for inhibition in vivo at 0.5 mg/kg: Rattus norvegicus, iv, read-out: Pulmonary Resistance in Rats, % Inhibition
Method: Rats (400-500 g) anesthetized with dialurethane were surgically prepared with tracheal and esophageal catheters. These catheters were connected to pressure transducers for recording of air flow, tracheal and esophageal pressures. These pressures formed the basis for measurement of pulmonary resistance. Inhibition of pulmonary resistance is a reflection of bronchodilation.
All compounds were tested i. v. in 5 separate animals. All data are expressed in % decrease in the pre-drug baseline resistance and each number given is the mean of the 5 animals tested.
The model is sensitive to bronchodilator activity.
Further information relating this test can be obtained from the following publications which are hereby incorporated by reference: Comroe et al, J. Appl. Physio. 4:439-44 (1959); Dungan et al J. Pharmacol. Exp. Therap. 164:290-301(1968); and Mead, J. et al. J. Appl. Physio. 5:779-796 (1953).

[3] = test system: histamine-induced dyspnea; test: Bronchodilator (in vivo) Guinea Pig Dyspnea; conditions: oral; for responders at 50 mg/kg / responders at 100 mg/kg: Cavia porcellus, 1 h, read-out: DYSP survivors (converted)
Method: Unanesthetized guinea pigs (250-350 g), fasted overnight were placed in individual closed aerosol chambers which were connected to a Monoghan Ultrasonic nebulizer. The nebulizer can deliver an ultrasonic fog of uniform particles in a range of 1-8 microns. A 0.1% solution of histamine is aerosolized into the chambers causing the guinea pigs to develop dyspnea. The test drug was given orally one hour before the histamine challenge and the onset of dyspnea was recorded. Saline control animals developed dyspnea within 90-120 seconds of aerosol exposure. […] The data was expressed as the number tested over the number survived. The model was sensitive to bronchodilator and H1 antihistamine activity. Further information relating this test can be obtained from the following two publications which are hereby incorporated by reference: Dungan, K. W. and Lish, P. M. J Allergy 32:139-151 (1961). and Lish, P. M., Robbins, S. I. and Petres E. L. J. Pharmacol. Exp. Therap. 153 L 1538 (1966 ).

[4] = test system: methamphetamine toxicity; test: Methamphetamine toxicity test in mice; type: in vivo; conditions: Mus musculus, read-out: METHA ED50
Method: The methamphetamine toxicity test in mice was carried out as described in Burn et al, Arch. Int. Pharmacodyn 113:290-295, (1958); and Coscia et al, Arzneim-Forsch (Drug Research) 25:1436-1442, (1975); which are hereby incorporated by reference.
(§1) The results for this test are given below as ED50's in the units of mg/kg.
METHA refers to the methamphetamine toxicity test in mice;

[5] = test system: metrazole; test: Anti-metrazole test in mice; type: in vivo, mouse; conditions: Mus musculus, read-out: MTZ ED50
Method: The anti-metrazole test in mice was carried out as described in Everett et al, J. Pharmacol. Exp. Therap. 81:402-407 (1944); which is hereby incorporated by reference.
as §1

[6] = test system: TBZ-induced ptosis; test: Effects on tetrabenazine (TBZ)-induced ptosis in mice; type: in vivo, mouse; conditions: Mus musculus, po
Text: Clinically active antidepressant drugs are known to block TBZ-induced ptosis in mice (See Psychosomatic Medicine, Nodine and Moyer, Eds. Lea and Febiger, Philadelphia, 1962, pp 683-90, which is hereby incorporated by reference). Activity in this test is used to predict anti-depressant activity in man.
The procedure for the TBZ-Induced Ptosis Test in Mice is set forth in Psychosomatic Medicine, Nodine and Moyer, Eds. Lea and Febiger, which is hereby incorporated by reference and in PCT/US91/06705, filed 20 Sep. 1991, which is mentioned above.
(§2) The results for this test are given below as ED50 's in the units of mg/kg.
TBZ refers to the test of effects on tetrabenazine induced ptosis in mice, p.o.;

[7] = test system: muricidal (mouse-killing) behavior; test: Effects on muricidal behavior in rats; type: in vivo, rat; conditions: Rattus norvegicus, read-out: MUR ED50
Text: Blockade of muricidal (mouse-killing) behavior in rats is used as a measure of evaluating the anti-depressant activity of drugs, and the procedure for carrying out this test is set forth in Int. J. Neuro-pharmacal., 5, 405-411 (1966) are hereby incorporated by reference, and in PCT/US91/06705, filed 20 Sep. 1991, which is mentioned above.
as §2
MUR refers to the test on the effects on muricidal behavior in rats;

[8] = test system: LOX human melanoma cell adhesion to human fibronectin; test: LOX melanoma cell adhesion to fibronectin; type: cell-based; conditions: Homo sapiens, LOX; for inhibition at 10 µM: read-out: % Inhibition at 10 μM; for inhibition at 50 µM: read-out: % Inhibition at 50 μM; for IC50: Table 4, 1 hour adhesion, read-out: LOX FN IC50
Method: (§3) Adhesion assays were run essentially as described previously (Pai et al., J. Biomed. Res. 2: 53, 1992). 96-well plates were coated with human fibronectin (140 ng/well), human vitronectin (75 ng/well), human collagen I (100 ng/well), human collagen IV (100 ng/well), human fibrinogen (1 μg/well), murine laminin (600 ng/well), or polylysine, and incubated overnight in a humidified 37° C. incubator. Excess fibronectin or other substrate was then removed and 0.2 ml of 2 mg/ml bovine serum albumin (BSA)in Dulbecco's phosphate-buffered saline (DPBS) was added to each well, incubated for 2 hours at 37° C., and removed. LOX human melanoma cells, M27 murine lung carcinoma cells or B16F10 mouse melanoma cells were detached from tissue culture flasks with RPMI medium containing 0.2M urea and 10 mM EDTA, and 0.18 ml of cells were added to each well to a final cell concentration of 1×10^5 cells/well. For inhibition studies 20 μl of 10× compound was added to the wells prior to cell addition. Cells were allowed to adhere for 1 hour at 37° C. The wells were then gently washed twice with 0.2 ml DPBS. The fluorescent dye calcein AM (Molecular Probes, Eugene Oreg.) in DPBS (0.1 ml of 1 μM) was added to each well, and the plates were incubated for 1 hour at room temperature. Adherent cells were quantitated by reading the fluorescence on a Cytofluor 2300 fluorescent plate reader (Millipore) at 485 nm excitation and 530 nm emission.
LOX FN-IC50 value for inhibition of adhesion of LOX human melanoma cells to fibronectin coated on a plastic surface.

[9] = Calcein cytotoxicity assay; type: cell-based; conditions: human, lox melanoma cells; 2 hours, calcein AM assay; read-out: 2 Hr Tox LD50
Method: LOX human melanoma cells were detached from tissue culture flasks with RPMI medium containing 0.2M urea and 10 mM EDTA, and 0.18 ml of cells were added to each well to a final cell concentration of 5×10^4 cells/well. 20 μl of 10× compound was added to the wells prior to cell addition. Cells were incubated with the compound at 37° C. for 1 hour or 5 hour as indicated. Calcein AM in DPBS (0.02 ml of 5 μM) was added to each well, and the plates were incubated for an additional 1 hour at room temperature. Viable cells were quantitated by reading the fluorescence on a Cytofluor 2300 fluorescent plate reader at 485 nm excitation and 530 nm emission.

[10] = test system: LOX human melanoma cell adhesion to polylysine; test: LOX melanoma cell adhesion to polylysine; type: cell-based; conditions: read-out: Poly Lys IC50
Method: as §3

[11] = 50 mg/kg, one hour before histamine challenge
[12] = 100 mg/kg, one hour before histamine challenge

Compound | ED50 [1] | inhibition in vivo at 0.5 mg/kg [2] | responders at 50 mg/kg [3, 11] | ED50 [4] | ED50 [5] | ED50 [6] | ED50 [7] | inhibition at 10 µM [8] | inhibition at 50 µM [8] | Pulmonary Resistance in Rats, % Inhibition [2] | DYSP survivors [3, 12] | CC50 at 2 h [9] | IC50 [10] | IC50 [8] | responders at 100 mg/kg [3, 12] | DYSP survivors ([3]; 10 mg/kg, one hour before histamine challenge) | DYSP survivors ([3]; 20 mg/kg, one hour before histamine challenge) | DYSP survivors [3, 11] | DYSP survivors ([3]; dose not given)
CN1C2CCC1C1c3ccccc3C(O)(c3ccccc3)C1C2 (stereo not drawn) [AAA] | > 30 mg/kg | 35% | 0% | > 30 mg/kg | > 30 mg/kg | > 30 mg/kg | > 10 mg/kg | 5.2% | 5.8% | – | – | – | – | – | – | – | – | – | –
COc1ccc(C2C3=C(c4ccccc42)C2CCC(C3)N2C)cc1OC (stereo not drawn) [AA] | 22.8 mg/kg | – | – | > 30 mg/kg | > 30 mg/kg | > 30 mg/kg | > 10 mg/kg | -30% | 23.6% | 6% | 0/3 | – | – | – | – | – | – | – | –
COc1ccc(C2C3=C(c4ccccc42)C2CCC(C3)N2)cc1 (stereo not drawn) [Compound X] | > 30 mg/kg | – | – | > 60 mg/kg | – | 17.3 mg/kg | > 30 mg/kg | 20.8% | 99.7% | – | – | 67.7 µM | 121 µM | 15 µM | – | – | – | – | –
CN1C2CCC1C1c3ccccc3C(c3ccccc3)C1C2 (stereo not drawn) [MM] | – | 9% | 0% | – | – | 9.3 mg/kg | > 10 mg/kg | -1.8% | 25.8% | – | – | – | – | – | 66.7% | – | – | – | –
c1ccc(C2=C3CC4CCC(N4)C3c3ccccc32)cc1 (stereo not drawn) [Q] | > 30 mg/kg | – | – | – | > 30 mg/kg | 3.6 mg/kg | > 10 mg/kg | 0.1% | 97.1% | 24% | 0/3 | 66.7 µM | 83.6 µM | 19.1 µM | – | – | – | – | –
CN1C2CCC1C1c3ccccc3C(O)(c3ccc(F)cc3)C1C2 (stereo not drawn) [SS] | > 30 mg/kg | 22% | 33.3% | > 30 mg/kg | > 30 mg/kg | > 30 mg/kg | > 10 mg/kg | 10.1% | 17.3% | – | – | > 250 µM | > 250 µM | > 50 µM | 100% | – | – | – | –
CN1C2CCC1C1=C(C2)C(c2ccc(F)cc2)c2ccccc21 (stereo not drawn) [W] | 10.7 mg/kg | – | – | 8.9 mg/kg | > 30 mg/kg | > 30 mg/kg | – | 36.3% | 100% | 21% | 3/3 | 103 µM | 78.3 µM | 17.4 µM | – | 1/3 | 2/3 | 2/3 | –
COc1ccc(C2C3=C(c4ccccc42)C2CCC(C3)N2C)cc1 (stereo not drawn) [Y] | – | – | – | > 30 mg/kg | – | 0.35 mg/kg | > 20 mg/kg | -1.2% | 98.2% | – | – | 63.6 µM | 105 µM | 21.6 µM | – | – | – | – | 2/3
